Assay [1] relates to Colon cancer (HCT116) cells. The assay can be described thus: Cell death by combination treatment with anti-cancer drug (MTT). Type of assay: cell-based. The conditions noted are these: Homo sapiens, HCT-116; HCT116, 5-FU 10 μM alone, 24 hours; read-out: cancer cells survived (cell viability).
In assay [2] the test system is Pancreatic cancer (AsPC-1) cells. The description is as above. The assay is classed as cell-based. The conditions noted are these: Homo sapiens, ASPC1, 24 h; read-out: cancer cells survived (cell viability).
The test system of assay [3] is Lung cancer (H1975) cells. The description is as above. The assay is classed as cell-based. The settings on record: Homo sapiens, NCI-H1975; H1975, osimertinib 1 nM alone, 24 hours; read-out: cancer cells survived (cell viability).
The test system of assay [4] is Lung cancer (H1975) cells. The assay can be described thus: Xenograft model, combination with anti-cancer drug, tumor volume. Type of assay: in vivo, BALB/c nude mice. The conditions noted are these: osimertinib 1 mg/kg oral twice a week alone. The protocol:
(§1) Brain (U-87MG), lung (H1975), pancreatic (AsPC-1), or liver (Hep G2) cells (1×10^7 cells) were inoculated into 5-week-old BALB/c nude mice on the back flank, respectively. Then, when tumors were grown to a volume of approximately 150 mm^3, the mice were divided into the control group (control), an anti-cancer drug alone treatment group, and a combination treatment group. […] The tumor size was measured every 6 days using a digital caliper, and the results of changes in tumor volume were compared by the group.
Lung cancer (H1975) cells (1×10^7) were inoculated into 5-week-old BALB/c nude mice on the back flank, and the mice were divided into three groups: the control group (Control), single oral administration of 1 mg/kg of osimertinib, and combination administration of osimertinib+10 mg/kg of ADP-ribose. When the tumors were grown to a volume of approximately 150 mm^3, osimertinib was administered orally twice a week, and ADP-ribose at 10 mg/kg was injected subcutaneously 3 times a week. The tumor size was measured using a digital caliper, and the results of changes in tumor volume were compared by the group.

Assay [5] concerns Liver cancer (Hep G2) cells. Described as above. Type of assay: in vivo, BALB/c nude mice. The settings on record: sorafenib 10 mg/kg oral 5 times a week alone. On the procedure:
as §1
Liver cancer (Hep G2) cells (1×10^7) were inoculated into 5-week-old BALB/c nude mice on the back flank, and the mice were divided into three groups: the control group (Control), single oral administration of 10 mg/kg of sorafenib, and combination administration of sorafenib+10 mg/kg of ADP-ribose. When the tumors were grown to a volume of approximately 150 mm^3, sorafenib was administered orally 5 times a week, and ADP-ribose at 10 mg/kg was injected subcutaneously 3 times a week. The tumor size was measured using a digital caliper, and the results of changes in tumor volume were compared by the group.

In assay [6] the test system is Liver cancer (Hep G2) cells. The assay can be described thus: Cell death by combination treatment with anti-cancer drug (MTT). The settings on record: Homo sapiens, HepG2, 24 h, read-out: cancer cells survived (cell viability).
Assay [7] relates to Brain cancer (U-87MG) cells. Description: Xenograft model, combination with anti-cancer drug, tumor volume. Type of assay: in vivo, BALB/c nude mice. The conditions noted are these: U-87MG xenograft, Avastin 25 mg/kg intraperitoneal twice a week alone. The protocol: as §1
Brain cancer (U-87MG) cells (1×10^7) were inoculated into 5-week-old BALB/c nude mice on the back flank, and the mice were divided into three groups: the control group (Control), single intraperitoneal administration of 25 mg/kg of Avastin (ingredient name: bevacizumab), and combination administration of Avastin+10 mg/kg of ADP-ribose. When the tumors were grown to a volume of approximately 150 mm^3, Avastin was administered intraperitoneally twice a week, and ADP-ribose at 10 mg/kg was injected subcutaneously 3 times a week. The tumor size was measured using a digital caliper, and the results of changes in tumor volume were compared by the group.

As for `O=c1[nH]cc(F)c(=O)[nH]1` [5-FU, 5-fluorouracil, reference compound], in assay [1], the viability at 10 µM is about 51%.

Consider `Nc1ccn([C@@H]2O[C@H](CO)[C@@H](O)C2(F)F)c(=O)n1` [gemcitabine, reference compound], for which the viability at 1 µM in assay [2] is about 54%.

Consider `C=CC(=O)Nc1cc(Nc2nccc(-c3cn(C)c4ccccc34)n2)c(OC)cc1N(C)CCN(C)C` [osimertinib, reference compound], for which the viability at 0.001 µM in assay [3] is about 50%. Further, the “final tumor volume lower than that of the control group” value (from here on “final tumor volume lower than that”) in assay [4] was “about 17%”. Moreover, the final tumor volume result in assay [4] (control about 2265.5) is on record as “about 1881.9 mm^3”.

As for `CNC(=O)c1cc(Oc2ccc(NC(=O)Nc3ccc(Cl)c(C(F)(F)F)c3)cc2)ccn1` [sorafenib, reference compound], the “final tumor volume lower than that” value in assay [5] is recorded as “about 20%”. For the same compound, the final tumor volume result in assay [5] (control about 2322.4) was “about 1849.8 mm^3”. For the same compound, the viability at 1 µM in assay [6] is about 49%.

For “bevacizumab: anti-VEGF monoclonal antibody; Avastin (ingredient name: bevacizumab) [reference compound]”, the “final tumor volume lower than that” value in assay [7] is on record as “about 37%”. For the same compound, in assay [7] (control about 2527.1), the final tumor volume entry is on record as “about 1598.9 mm^3”.

Broadly, the viability is a per cent measure of how many cells are alive, often set against a control.

Values taken from patent publication US20230372382A1, “USE OF ADENOSINE DIPHOSPHATE RIBOSE FOR ADJUVANT THERAPY WITH RADIATION AND/OR ANTI-CANCER TREATMENT” (PearlsInMires Co., Ltd., priority 2021, published 2023).
